Patent publication US20110020235A1, “MR METHODS OF GRADING A TUMOR USING AN IMAGING MEDIUM THAT COMPRISES HYPERPOLARISED 13C-PYRUVATE” (priority 2007, published 2011)

Assay: T1 relaxation of 13C1-pyruvate in human full blood
Assay type: physicochemical
Details: human full blood at 37° C.

With `CC(=O)C(=O)O` [13C1-pyruvate] the T1 relaxation was “about 42 s”.
